This is an account of results in patent publication US20080267941A1, “Nutrition Comprising Betaine Against Muscle Wasting” (N. V. Nutricia, priority 2005, published 2008).

This assay concerns muscles of normal healthy rats. In words: Resting muscle glycogen levels in rats after 6 weeks of oral betaine supplementation. It counts as in vivo, rat. As to conditions: for Resting glycogen levels in rats: male Wistar rats, 60 mg betaine in 1 ml vanilla custard orally each day for 6 weeks, *P < 0.05. Here is the method:
Experiments were performed on 8 male Wistar rats, 250-300 gram, which were housed individually, and had free access to water and food. All experimental procedures were approved by the Institutional Animal Care and Use Committee of the Netherlands, and complied with the principles of laboratory animal care. To determine the effect of oral betaine supplementation, the betaine group (n=4) received 1 ml vanilla custard each day in combination with 60 mg betaine (Sigma Aldrich), and the control group (n=4) received 1 ml vanilla custard. After 6 weeks of supplementation, the fast extensor digitorum longus, (EDL) and slow-(soleus) muscles were removed for further biochemical analysis and frozen in liquid nitrogen. Muscles were stored at −80° C. until analysis. Thereafter, muscles were freeze-dried during 3 days at −4° C. The freeze-dried muscles were crushed to powder, 400 μl 1M HCl was added to approximately 10 mg tissue and hydrolysed at 98° C. during 2 hours. After cooling down, 400 μl 1M NaOH was added to neutralize the samples and the samples were centrifuged 5 minutes at 13,000 rpm. Glycogen content was determined fluorimetrically by a glucose kit (Roche Diagnostics) and expressed as μmol glycosyl units·g^−1.

The structures appear in SMILES notation. Structures can show the parent of a compound that is named as a salt.

For `C[N+](C)(C)CC(=O)O` [betaine, 1-carboxy-N,N,N-trimethylmethanaminium inner salt], the “Resting glycogen levels in rats” value by setting is: (EDL (fast extensor digitorum longus) muscle) 120 + 4* μmol glycosyl units/g tissue; (Soleus (slow) muscle) 137 ± 16* μmol glycosyl units/g tissue. In addition, where the note is “rats given vanilla custard containing betaine vs vanilla custard control”, the “glycogen content of the muscle cells” value was “significantly increases”.
